Paper PMC11026381, “Late-stage meta-C–H alkylation of pharmaceuticals to modulate biological properties and expedite molecular optimisation in a single step” (Nature Communications, 2024)
≈ marks a conversion by molar mass, not a printed value.

Legend:
[1] = Thermodynamic solubility, shake-flask approach, phosphate buffer pH 7.4; type: physicochemical; details: pH 7.4, phosphate buffer 0.1 M, 20 °C, n = 1
Source text: (§1) 5. Pharmaceutically relevant properties modulation
(§2) Product analogues 5e, 6a-6k obtained after late-stage meta-C–H alkylation of the pharmaceutically active compound Emapunil (4e) were subjected to a range of fundamental in vitro drug discovery assays. To prevent hydrolysis of ester groups present on these analogues during biological testing (in order to compare the clearance and metabolic stability between these drug derivatives), their corresponding free acids 5e’, 6a’-6k’ were synthesised (see page S54) and subjected to similar assays.
The experimental methods used for these physicochemical & drug metabolism and pharmacokinetics (DMPK) assays are described below 11.
This method measures the thermodynamic solubility of compounds based on a shake-flask approach12.
The nature of the solid state was unknown in these experiments and may be subject to variability. The compounds were dissolved in DMSO (30 μL, 10 mM) in glass vials, and were dried using a Genevac vacuum evaporator (Genevac Ltd, Ipswich, UK). When the samples were dry, 300 μL of phosphate buffer (0.1 M, pH 7.4) was added to the glass vials. The vials were put on an Edmund Bühler shaker (Edmund Bühler GmbH, Hechingen, Germany) at 20 °C for 18 hours. Samples were filtered through a Whatman GF/B 96-well filter and 20 μL of filtrated samples were transferred to separate wells in a plate containing 180 μL MeCN/H2O (1:1). Standards were prepared by diluting the 10 mM compound solutions with MeCN/H2O (1:1) to 200 μM. Three further dilution steps of 10 times were applied to both the samples and standards and they were all analy sed by LC-MS/MS (Waters Xevo-TQS). Solubility was determined using the integrated peak areas of the samples in the linear MS response range. […]

[2] = Octanol/water partitioning (LogD), shake-flask method; type: physicochemical; details: n = 1; for LogD (octanol): 1-octanol / phosphate buffer pH 7.4, 20 °C; for logD: 1-octanol/phosphate buffer, pH 7.4, 1-octanol / phosphate buffer pH 7.4, 20 °C
Source text: as §1, §2
(§3) The experimental methods used for these physicochemical & drug metabolism and pharmacokinetics (DMPK) assays are described below 11. […]
Octanol/water partitioning (LogD)
Partitioning of compounds between 1 -octanol and phosphate buffer (0.1 M, pH 7.4) at 20 °C were determined using a modified version of the shake -flask method described by Leo et al13. Compounds were dissolved in a 96 -well plate, in 400 μL octanol, and 400 μL of buffer was added to each well. The plate was vigorously stirred for 5 min and then put on an Edmund Bühler shaker (Edmund Bühler GmbH, Hechingen, Germany) at 20 °C for 18 hours. Aliquots of 5 μL octanol were transferred and diluted with 495 μL MeCN/H2O (1:1) and, to avoid contamination of the buffer, the rest of the octanol was removed before 150 μL of buffer samples were transferred. Octanol and buffer samples were diluted with MeCN/H2O (1:1) in four steps of 10 times to yield octanol samples diluted 10 2 to 106 times and buffer samples diluted 1 to 104 times. LC-MS/MS (Waters Xevo-TQS) was used for analysis, and distribution coefficient at pH 7.4 (LogD7.4) was calculated from the integrated peak areas of the samples in the linear MS response range. LogD7.4 results were reported as median values. […]

[3] = Fraction unbound in human plasma (Prot. Bind.), equilibrium dialysis; type: in vitro ADME; details: 5 μM, dialysis at 37 °C for 18 hours
Source text: as §1, §2, §3
Fraction unbound in human plasma (Prot. Bind.)
Equilibrium dialysis of compounds was used to assess the fraction unbound in human plasma. Stock solutions of compounds dissolved in DMSO were pooled into cassettes with up to 10 compounds in each cassette with a concentration of 1 mM. The pooled stock solutions were diluted in plasma to a compound concentration of 5 μM. Warfarin, propranolol and metoprolol were used as reference compounds in each run. The equilibrium dialysis device (RED, Thermo Fischer Scientific Inc., Rockford, USA) was used for dialysis against phosphate buffer (pH 7.4) at 37 °C for 18 hours. Calibration curves ranging from 0.001 to 7 μM were made using aliquots of the 7 μM spiked plasma pools that were transferred to a new plate followed by serial dilutions with blank plasma. Calibration curve samples and dialysis samples were precipitated with MeCN and after centrifugation, supernatants were removed and analysed using LC-MS/MS (Waters Xevo-TQS). Fraction unbound in the incubation was calculated as the concentration in the media buffer sample divided by the concentration in the plasma sample. The fraction unbound was reported as the median value.

[4] = Metabolic stability in human liver microsomes (CLint HLM); type: in vitro ADME; details: 1 mg/mL microsomal protein, 1 mM NADPH, 37 °C; for microsomal CLint at 1 μM: both sexes, human, liver microsomes, pH 7.4, measured on the labelled compound itself, n = 1, read-out: CLint HLM (intrinsic clearance in human liver microsomes); for CLint HLM (intrinsic clearance in human liver microsomes): measured on the labelled compound itself, 1 μM, n = 1
Protocol: Metabolic stability in human liver microsomes (CLint HLM)
Human liver microsomes were defrosted on ice and diluted to 1 mg/mL of microsomal protein in phosphate buffer (0.1 M, pH 7.4). Compounds at 1 μM were incubated with the liver microsome suspensions and 1 mM NADPH at 37 °C in a 96-well plate. At 0.5, 5, 10, 15, 20 and 30 min, aliquots of 30 μL were transferred to a 96-well plate containing 120 μL MeCN. This plate was centrifuged for 20 min and supernatant was removed and diluted with H2O (1:1) before analysis by LC-MS/MS (Waters Xevo-TQS). Peak areas were determined from extracted ion chromatograms, and the in vitro intrinsic clearance (in vitro CLint, in μL/min/mg microsomal protein) of parent compound was calculated from the slope in the regression analysis of the natural logarithm of parent concentration vs. time curve.
Human Liver Microsomes (InVitroCYPTM 150-Donor, Mixed Gender) were harvested and supplied by BioIVT (Product No. X008070, Lot No. QQY). […]
(§4) The modulation of pharmaceutically relevant properties on meta-C–H alkylation is shown below in Supplementary Fig. 68, with a selection of physicochemical and DMPK data including solubility , LogD, human plasma protein binding (Prot. Bind.) and intrinsic clearance (CLint) in human liver microsomes (HLM) or rat hepatocytes (Rat Hep.) .

[5] = Metabolic stability in male Han Wistar rat hepatocytes (CLint Rat Hep.); type: in vitro ADME; details: measured on the labelled compound itself, 1 μM, 10^6 viable cells/mL, 37 °C, n = 1
Protocol: Metabolic stability in male Han Wistar rat hepatocytes (CLint Rat Hep.) Hepatocyte metabolic stability was determined in accordance with the method described by Jacobson et al14. Cryopreserved hepatocytes at a concentration of 10 6 viable cells/mL were used. After thawing, hepatocytes were incubated for 10 min to warm to 37 °C, and compounds dissolved in MeCN were […]
incubation system was mixed and 20 μL aliquots were transferred at each time point to wells in a separate plate filled with 80 μL MeCN to stop the reaction. The quenching plate was then vortexed followed by centrifugation, and supernatants were analysed by LC-MS/MS (Waters Xevo-TQS). Peak areas were determined from extracted ion chromatograms, and the in vitro intrinsic clearance (in vitro CLint, in μL/min/10^6 cells) of parent compound was calculated from the slope in the regression analysis of the natural logarithm of parent concentration vs. time curve. Rat Hepatocytes (Cryosuspension, Male Wistar Hannover ) were harvested and s upplied by BioIVT (Product No. M00065, Lot No. DVO).
as §4

[6] = aqueous buffer, thermodynamic from solid

Compound	solubility at 18 h [1, 6] [µM]	solubility at 18 h [1] [µM]	LogD (octanol) [2]	logD [2]	Prot. Bind. (% free), human plasma protein binding ([3]; n = 1) [% free]	microsomal CLint at 1 μM [4] [µL/min/mg]	CLint HLM (intrinsic clearance in human liver microsomes) [4] [µL/min/mg]	CLint Rat Hep. (intrinsic clearance in rat hepatocytes) [5] [μL/min/10^6]	CLint Rat Hep. (intrinsic clearance in rat hepatocytes) ([5]; listed as 6a’) [μL/min/10^6]	CLint Rat Hep. (intrinsic clearance in rat hepatocytes) ([5]; listed as 6h’) [μL/min/10^6]	CLint Rat Hep. (intrinsic clearance in rat hepatocytes) ([5]; listed as 6c’) [μL/min/10^6]	Prot. Bind. (% free), human plasma protein binding ([3]; n = 1, listed as 6j’) [% free]	CLint Rat Hep. (intrinsic clearance in rat hepatocytes) ([5]; listed as 6j’) [μL/min/10^6]
CCOC(=O)Cc1cccc(-c2ncc3c(n2)n(CC(=O)N(CC)Cc2ccccc2)c(=O)n3C)c1 [6a]	41 (≈ 20 µg/mL)	924 (≈ 451 µg/mL)	-0.5	3.3	12.0	> 300	< 3.0	> 300	10.5	–	–	–	–
CCOC(=O)C1(c2cccc(-c3ncc4c(n3)n(CC(=O)N(CC)Cc3ccccc3)c(=O)n4C)c2)COC1 [6h]	58 (≈ 30.7 µg/mL)	> 1000	-1.0	3.1	14.0	> 300	4.6	> 300	–	19.3	–	–	–
CCN(Cc1ccccc1)C(=O)Cn1c(=O)n(C)c2cnc(-c3cccc(C4(C#N)CCC4)c3)nc21 [6d]	50 (≈ 24 µg/mL)	–	–	3.9	0.5	> 300	–	> 300	–	–	–	–	–
CCN(Cc1ccccc1)C(=O)Cn1c(=O)n(C)c2cnc(-c3cccc(C4(C(=O)OC)CC4)c3)nc21 [6c]	51 (≈ 25.5 µg/mL)	965 (≈ 482 µg/mL)	0.3	3.3	6.6	> 300	< 3.0	> 300	–	–	36.2	–	–
CCN(Cc1ccccc1)C(=O)Cn1c(=O)n(C)c2cnc(-c3ccccc3)nc21 [4e, emapunil, reference compound]	6 (≈ 2.41 µg/mL)	–	–	3.2	0.8	218	–	164	–	–	–	–	–
CCN(Cc1ccccc1)C(=O)Cn1c(=O)n(C)c2cnc(-c3cccc(C4(C(=O)OCc5ccccc5)CN(C(=O)OC(C)(C)C)C4)c3)nc21 [6j]	< 2.4	910 (≈ 629 µg/mL)	> 3.6	–	< 0.1	> 300	7.6	> 300	–	–	–	0.8	17.2
